Drawing on ChEMBL document CHEMBL5512640, “Discovery of novel itaconimide-based derivatives as potent HDAC inhibitors for the efficient treatment of prostate cancer” (Eur J Med Chem, 2024), this text covers IC50, Activity and inhibition in vivo for 35 compounds.

The target in one series is Histone deacetylase 1 (Homo sapiens, UniProt Q13547). The series can be described thus: Inhibition of human HDAC1 incubated for 10 mins followed by fluorogenic substrate addition by fluorescence based analysis.
Sequence of Histone deacetylase 1 (Q13547 whole entry): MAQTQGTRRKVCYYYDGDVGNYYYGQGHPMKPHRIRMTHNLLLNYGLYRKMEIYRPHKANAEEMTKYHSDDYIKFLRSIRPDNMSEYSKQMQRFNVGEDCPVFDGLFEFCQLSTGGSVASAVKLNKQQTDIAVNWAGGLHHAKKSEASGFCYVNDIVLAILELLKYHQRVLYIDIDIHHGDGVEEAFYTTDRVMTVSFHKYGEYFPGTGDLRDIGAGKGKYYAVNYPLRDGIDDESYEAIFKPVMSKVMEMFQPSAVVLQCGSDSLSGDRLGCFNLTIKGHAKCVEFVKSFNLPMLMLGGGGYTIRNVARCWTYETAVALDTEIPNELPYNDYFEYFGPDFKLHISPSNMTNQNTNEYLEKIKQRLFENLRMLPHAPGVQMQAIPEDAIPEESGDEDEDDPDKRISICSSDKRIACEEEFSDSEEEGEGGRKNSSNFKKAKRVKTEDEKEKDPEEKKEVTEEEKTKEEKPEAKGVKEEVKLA
The subject of series [1] is DU-145. Description: Antiproliferative activity against human DU-145 cells incubated for 96 hrs by MTT assay. The class given is functional, cell-based. The conditions noted are these: DU-145, 96 h. (Formazan colour is commonly taken as a measure of viable cells.)
In the next series the test system is PC-3. The series can be described thus: Antiproliferative activity against human PC-3 cells incubated for 96 hrs by MTT assay. The class given is functional, cell-based. The conditions noted are these: PC-3, 96 h.
Series [2] is described as follows: Toxicity in Balb/c mouse assessed as effect on body weight at 8 mg/kg, ip measured upto 40 days. Type of series: organism-based. Particulars: in vivo, 960 h, time < 40 day.
Series [3] in a line: Toxicity in Balb/c mouse assessed as mortality at 8 mg/kg, ip measured upto 40 days. The class given is organism-based. The conditions noted are these: in vivo, 960 h, time < 40 day.
Series [4] has as its system DU-145. Description: Antitumor activity against human DU-145 cells xenografted in Balb/c nude mouse model assessed as tumor growth inhibition at 8 mg/kg, ip administered once daily for 40 days relative to control. The class given is functional. Particulars: DU-145, 960 h, time 40 day, read-out: TGI.
The test system of a further series is A549. The series can be described thus: Antiproliferative activity against human A549 cells incubated for 96 hrs by MTT assay. Type of series: functional, cell-based. Particulars: A549, 96 h.
A further series has as its system NCI-H446. The series can be described thus: Antiproliferative activity against human NCI-H446 cells incubated for 96 hrs by MTT assay. Type of series: functional, cell-based. Particulars: NCI-H446, 96 h.
A further series has as its system NCI-H1650. Description: Antiproliferative activity against human NCI-H1650 cells incubated for 96 hrs by MTT assay. Particulars: NCI-H1650, 96 h. Type of series: functional, cell-based.
In another series the test system is MCF7. Description: Antiproliferative activity against human MCF7 cells incubated for 96 hrs by MTT assay. Particulars: MCF7, 96 h. The class given is functional, cell-based.
A further series has as its system MDA-MB-231. The series can be described thus: Antiproliferative activity against human MDA-MB-231 cells incubated for 96 hrs by MTT assay. Type of series: functional, cell-based. The conditions noted are these: MDA-MB-231, 96 h.
In the next series the test system is HCT-116. The series can be described thus: Antiproliferative activity against human HCT-116 cells incubated for 96 hrs by MTT assay. The class given is functional, cell-based. Particulars: HCT-116, 96 h.
For the next series, the system named is HT-29. The series can be described thus: Antiproliferative activity against human HT-29 cells incubated for 96 hrs by MTT assay. The class given is functional, cell-based. Particulars: HT-29, 96 h.
In another series the test system is LNCaP. Description: Antiproliferative activity against human LNCaP cells incubated for 96 hrs by MTT assay. Type of series: functional, cell-based.
The target of series [5] is Polyamine deacetylase HDAC10 (Homo sapiens, UniProt Q969S8). Description: Inhibition of human HDAC10 incubated for 10 mins followed by fluorogenic substrate addition by fluorescence based analysis.
Sequence of Polyamine deacetylase HDAC10 (Q969S8 whole entry): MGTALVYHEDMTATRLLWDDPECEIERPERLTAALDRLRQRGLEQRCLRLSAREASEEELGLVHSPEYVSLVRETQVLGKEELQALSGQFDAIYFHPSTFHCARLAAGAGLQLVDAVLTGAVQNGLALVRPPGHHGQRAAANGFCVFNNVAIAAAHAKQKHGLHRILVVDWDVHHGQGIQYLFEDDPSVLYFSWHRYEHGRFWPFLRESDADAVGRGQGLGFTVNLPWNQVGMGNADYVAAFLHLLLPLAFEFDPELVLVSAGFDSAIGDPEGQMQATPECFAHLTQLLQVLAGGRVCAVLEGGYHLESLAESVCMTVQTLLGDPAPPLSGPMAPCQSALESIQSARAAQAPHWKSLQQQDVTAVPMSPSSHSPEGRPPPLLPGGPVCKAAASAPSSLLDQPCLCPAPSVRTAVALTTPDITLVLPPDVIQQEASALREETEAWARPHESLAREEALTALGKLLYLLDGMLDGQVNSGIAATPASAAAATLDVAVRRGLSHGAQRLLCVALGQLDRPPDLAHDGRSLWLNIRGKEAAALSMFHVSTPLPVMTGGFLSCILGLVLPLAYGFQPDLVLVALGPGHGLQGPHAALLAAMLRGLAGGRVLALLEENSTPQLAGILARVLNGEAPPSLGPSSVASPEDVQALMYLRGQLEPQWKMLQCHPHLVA
The next series deals with Histone deacetylase 11 (Homo sapiens, UniProt Q96DB2). Description: Inhibition of human HDAC11 incubated for 10 mins followed by fluorogenic substrate addition by fluorescence based analysis.
Sequence of Histone deacetylase 11 (Q96DB2 whole entry): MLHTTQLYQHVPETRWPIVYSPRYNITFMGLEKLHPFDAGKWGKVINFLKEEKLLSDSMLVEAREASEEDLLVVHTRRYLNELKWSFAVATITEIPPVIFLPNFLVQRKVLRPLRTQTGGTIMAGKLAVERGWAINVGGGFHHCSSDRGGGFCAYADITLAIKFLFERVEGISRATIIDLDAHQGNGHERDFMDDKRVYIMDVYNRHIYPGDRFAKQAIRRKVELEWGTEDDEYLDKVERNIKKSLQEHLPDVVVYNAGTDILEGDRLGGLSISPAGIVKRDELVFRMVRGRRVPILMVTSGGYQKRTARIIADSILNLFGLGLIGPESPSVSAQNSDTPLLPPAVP
The subject of series [6] is DU-145. Description: Induction of apoptosis in human DU-145 cells assessed as apoptotic rate at 1.6 uM measured after 72 hrs by annexin V-FITC and PI staining based flow cytometry analysis relative to control. Type of series: functional. (Flow cytometry measures light scatter and fluorescence of single cells or particles in a stream.)
Series [7] has as its system DU-145. Description: Downregulation of HDAC6 expression in human DU-145 cells at 0.8 uM incubated for 24 hrs by Western blot analysis. The class given is functional, cell-based. Background: Immunoblotting shows a protein as a band on a membrane.

In general, IC50 refers to the concentration needed to halve the response being measured.

Calls of active or inactive are those of the source. No cut-off for these calls is given here.

Take `Nc1cc(F)ccc1NC(=O)CCCCN1C(=O)C/C(=C\c2ccccc2)C1=O`: the results for the IC50 on Histone deacetylase 1, in the series with DU-145 [1] and in the series with PC-3 were 173 nM, more than 20000 nM and more than 20000 nM, respectively.

Turning to `Cc1ccccc1/C=C1\CC(=O)N(CCCCCCC(=O)NO)C1=O`, the IC50 at Histone deacetylase 1 was 21.7 nM; in the series with DU-145 [1] it was 710 nM; in the series with PC-3, 930 nM.

As for `Nc1cc(F)ccc1NC(=O)CCCN1C(=O)C/C(=C\c2ccccc2)C1=O`, the IC50 was 231 nM against Histone deacetylase 1, more than 20000 nM in the series with DU-145 [1] and more than 20000 nM with PC-3.

For the compound `CC(=O)O[C@@]12CO[C@@H]1C[C@H](O)[C@@]1(C)C(=O)[C@H](O)C3=C(C)[C@@H](OC(=O)[C@H](O)[C@@H](NC(=O)OC(C)(C)C)c4ccccc4)C[C@@](O)([C@@H](OC(=O)c4ccccc4)[C@H]21)C3(C)C` [DOCETAXEL ANHYDROUS], the Activity result in series [2] and in series [3] was “Toxic” each time. Moreover, the inhibition in vivo at 8 mg/kg in the series on DU-145 [4] is 13.3%.

As to `CCOc1ccccc1/C=C1\CC(=O)N(CCCCCCC(=O)NO)C1=O`, the IC50 against Histone deacetylase 1 amounted to 16.7 nM; with DU-145 [1] it was 340 nM; in the series with PC-3 it was 890 nM.

As for `CN(C)c1ccc(/C=C2\CC(=O)N(CCCCCCC(=O)NO)C2=O)cc1`, the IC50 was found to be 26.7 nM against Histone deacetylase 1, 920 nM with DU-145 [1] and 1750 nM in the series on PC-3.

Take `COc1ccc(Br)cc1/C=C1\CC(=O)N(CCCCCCC(=O)NO)C1=O`: the IC50 against Histone deacetylase 1 stood at 78.1 nM; in the series on DU-145 [1], 460 nM; in the series on PC-3, 1130 nM.

In the case of `Cc1ccc(/C=C2\CC(=O)N(CCCCCCC(=O)NO)C2=O)cc1`, the figures for the IC50 at Histone deacetylase 1, in the series with DU-145 [1] and in the series on PC-3 were 25.5 nM, 310 nM and 2200 nM, respectively.

In the case of `O=C(CCCCCCN1C(=O)C/C(=C\c2ccccc2O)C1=O)NO`, the IC50 on Histone deacetylase 1 was determined as 19.4 nM; in the series on DU-145 [1], 1720 nM; in the series on PC-3, 1930 nM.

With `O=C(CCCCCCN1C(=O)C/C(=C\c2cccc(F)c2)C1=O)NO`, the IC50 worked out at 75.2 nM at Histone deacetylase 1, 660 nM in the series with DU-145 [1] and 890 nM with PC-3.

Take `O=C(CCCCCCN1C(=O)C/C(=C\c2cccs2)C1=O)NO`: the IC50 against Histone deacetylase 1 amounted to 25.1 nM; with DU-145 [1] it was 540 nM; in the series with PC-3 it was 910 nM.

For the compound `O=C(CCCCCN1C(=O)C/C(=C\c2ccccc2)C1=O)NO`, the IC50 on Histone deacetylase 1 was found to be 32.2 nM; with DU-145 [1], 1490 nM; with PC-3, 4270 nM.

In the case of `O=C(CCCCCCN1C(=O)C/C(=C\c2ccc(Cl)c(Cl)c2)C1=O)NO`, the IC50 on Histone deacetylase 1 turned out to be 27.9 nM; in the series on DU-145 [1], 440 nM; in the series on PC-3, 1690 nM.

As to `O=C(CCCN1C(=O)C/C(=C\c2ccccc2)C1=O)NO`, the figures for the IC50 on Histone deacetylase 1, in the series on DU-145 [1] and with PC-3 were 182 nM, more than 20000 nM and more than 20000 nM, respectively.

As to `Nc1cc(F)ccc1NC(=O)CCCCCCN1C(=O)C/C(=C\c2ccccc2)C1=O`, the IC50 is 144 nM on Histone deacetylase 1, more than 20000 nM in the series on DU-145 [1] and more than 20000 nM with PC-3.

Take `O=C(CCCCCCN1C(=O)C/C(=C\c2ccc(Cl)cc2)C1=O)NO`: the results for the IC50 against Histone deacetylase 1, in the series on DU-145 [1] and with PC-3 were 23.4 nM, 570 nM and 890 nM, respectively.

`Nc1cc(F)ccc1NC(=O)c1ccc(CNC(=O)/C=C/c2cccnc2)cc1` [TUCIDINOSTAT]: the IC50 in the series on DU-145 [1] was 1490 nM; with PC-3, 5770 nM; in the series with A549 it was 9850 nM; with NCI-H446 it was 240 nM; with NCI-H1650 it was more than 20000 nM; in the series with MCF7 it was more than 20000 nM. Moreover, the IC50 in the series on MDA-MB-231 is 1860 nM; in the series on HCT-116, 920 nM; with HT-29, 4570 nM; in the series on LNCaP it was 2890 nM; in series [5], 456 nM; against Histone deacetylase 11, more than 5000 nM.

For the compound `O=C(CCCCCCN1C(=O)C/C(=C\c2ccc(C(F)(F)F)cc2)C1=O)NO`, the IC50 at Histone deacetylase 1 is 33.8 nM; with DU-145 [1] it was 1220 nM; with PC-3, 1830 nM.

Consider `O=C(CCCCCCN1C(=O)C/C(=C\c2ccccc2Cl)C1=O)NO`, for which the figures for the IC50 at Histone deacetylase 1, in the series with DU-145 [1] and in the series with PC-3 were 19.3 nM, 480 nM and 1440 nM, respectively.

`O=C(CCCCCCN1C(=O)C/C(=C\c2ccccc2)C1=O)NO`: the half-maximal inhibitory concentration (IC50) came to 12.9 nM against Histone deacetylase 1, 500 nM in the series with DU-145 [1] and 820 nM in the series on PC-3.

Consider `COc1cccc(/C=C2\CC(=O)N(CCCCCCC(=O)NO)C2=O)c1`, for which the IC50 at Histone deacetylase 1 amounted to 18.5 nM; in the series with DU-145 [1] it was 400 nM; with PC-3, 920 nM.

As to `O=C(CCCCCCN1C(=O)C/C(=C\c2cccc(Cl)c2)C1=O)NO`, the IC50 at Histone deacetylase 1 was 18.8 nM; in the series with DU-145 [1] it was 380 nM; in the series on PC-3, 1700 nM.

`O=C(NO)c1ccc(CN2C(=O)C/C(=C\c3ccccc3)C2=O)cc1`: the IC50 against Histone deacetylase 1 is 32.9 nM; with DU-145 [1], 2540 nM; in the series with PC-3, 7820 nM.

In the case of `COc1ccc(/C=C2\CC(=O)N(CCCCCCC(=O)NO)C2=O)cc1OC`, the values for the IC50 on Histone deacetylase 1, with DU-145 [1] and with PC-3 were 24.7 nM, 450 nM and 880 nM, respectively.

Take `COc1ccc(/C=C2\CC(=O)N(CCCCCCC(=O)NO)C2=O)cc1`: the IC50 is 13 nM at Histone deacetylase 1, 500 nM in the series with DU-145 [1] and 890 nM in the series with PC-3.

Regarding `COc1cc(/C=C2\CC(=O)N(CCCCCCC(=O)NO)C2=O)cc(OC)c1OC`, the results for the IC50 at Histone deacetylase 1, with DU-145 [1] and in the series on PC-3 were 27.5 nM, 1030 nM and 1710 nM, respectively.

Turning to `O=C(CCCCCCN1C(=O)C/C(=C\c2cccc(I)c2)C1=O)NO`, the IC50 against Histone deacetylase 1 stood at 28.7 nM; in the series on DU-145 [1], 910 nM; with PC-3, 1470 nM.

On to `CC(C)c1ccc(/C=C2\CC(=O)N(CCCCCCC(=O)NO)C2=O)cc1`, for which the IC50 at Histone deacetylase 1 is 28.6 nM; with DU-145 [1], 1350 nM; in the series on PC-3, 1820 nM.

As to `Nc1cc(F)ccc1NC(=O)CCCCCN1C(=O)C/C(=C\c2ccccc2)C1=O`, the IC50 is 105 nM on Histone deacetylase 1, 11100 nM with DU-145 [1] and more than 20000 nM in the series with PC-3.

Turning to `O=C(CCCCCCN1C(=O)C/C(=C\c2cccc(Br)c2)C1=O)NO`, the IC50 against Histone deacetylase 1 turned out to be 19.1 nM; in the series with DU-145 [1] it was 650 nM; in the series on PC-3 it was 1060 nM.

`N#Cc1ccccc1/C=C1\CC(=O)N(CCCCCCC(=O)NO)C1=O`: the IC50 is 40.1 nM against Histone deacetylase 1, 740 nM in the series with DU-145 [1] and 870 nM in the series with PC-3.

For `O=C(CCCCCCC(=O)Nc1ccccc1)NO` [VORINOSTAT], the Activity with DU-145 [6] turned out to be 73.76%. In the series with DU-145 [7], the result was Active.

On to `O=C(CCCCN1C(=O)C/C(=C\c2ccccc2)C1=O)NO`, for which the IC50 against Histone deacetylase 1 was 136 nM; with DU-145 [1], more than 20000 nM; with PC-3, more than 20000 nM.

With `O=C(CCCCCCCN1C(=O)C/C(=C\c2ccccc2)C1=O)NO`, the IC50 was determined as 25.2 nM on Histone deacetylase 1, 1560 nM in the series on DU-145 [1] and 5010 nM in the series with PC-3.

In the case of `C=C(CC(N)=O)C(N)=O`, the IC50 in the series with DU-145 [1] was found to be 14800 nM; in the series on PC-3, 9990 nM.
